Results taken from PubChem BioAssay AID270 (DTP/NCI, 2004).
Values joined by “and” are separate entries in the source; they are usually repeats but may differ in a detail not shown here. Equal values may be shown once. Results filed as inconclusive are left out.

System: BDF1 mice, s.c. Lewis lung carcinoma, T/C %
Test: NCI In Vivo Anticancer Drug Screen. Data for tumor model Lewis Lung Carcinoma (subcutaneous) in B6D2F1 (BDF1) mice
Procedure, shortened: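 The value reflects a ratio in which the treated cohort's survival time or tumour size is compared against mice receiving only vehicle.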

[1] = endpoint: median survival time, dose: 0.25 mg/kg/injection, schedule: Q01DX009 (ip), vehicle: Klucel (hydroxypropylcellulose) (HPC), higher = longer survival
[2] = endpoint: median survival time, dose: 0.5 mg/kg/injection, schedule: Q01DX009 (ip), vehicle: Klucel (hydroxypropylcellulose) (HPC), higher = longer survival
[3] = endpoint: median survival time, dose: 1.0 mg/kg/injection, schedule: Q01DX009 (ip), vehicle: Klucel (hydroxypropylcellulose) (HPC), higher = longer survival
[4] = endpoint: median survival time, dose: 2.0 mg/kg/injection, schedule: Q01DX009 (ip), vehicle: Klucel (hydroxypropylcellulose) (HPC), higher = longer survival
[5] = endpoint: median survival time, dose: 4.0 mg/kg/injection, schedule: Q01DX009 (ip), vehicle: Klucel (hydroxypropylcellulose) (HPC), higher = longer survival

Compound: Nc1nc(N)c(N=O)c(Nc2ccc(Cl)c(Cl)c2)n1
- T/C (endpoint: mean tumor weight, dose: 100.0 mg/kg/injection, schedule: Q01DX011 (ip), vehicle: carboxymethylcellulose (CMC), higher = larger tumour): 23 % of control and 32 % of control
- T/C (endpoint: mean tumor weight, dose: 200.0 mg/kg/injection, schedule: Q01DX011 (ip), vehicle: carboxymethylcellulose (CMC), higher = larger tumour): 31 % of control and 52 % of control
- T/C (endpoint: mean tumor weight, dose: 400.0 mg/kg/injection, schedule: Q01DX011 (ip), vehicle: carboxymethylcellulose (CMC), higher = larger tumour): 32 % of control and 46 % of control

Compound: CC1(c2ccc(N(CCCl)CCCl)cc2)NC(=O)NC1=O (stereo not given)
- T/C (endpoint: median survival time, dose: 12.5 mg/kg/injection, schedule: Q01DX009 (ip), vehicle: Klucel (hydroxypropylcellulose) (HPC), higher = longer survival): 111 % of control
- T/C (endpoint: median survival time, dose: 25.0 mg/kg/injection, schedule: Q01DX009 (ip), vehicle: Klucel (hydroxypropylcellulose) (HPC), higher = longer survival): 91 % of control
- T/C (endpoint: median survival time, dose: 50.0 mg/kg/injection, schedule: Q01DX009 (ip), vehicle: Klucel (hydroxypropylcellulose) (HPC), higher = longer survival): 98 % of control
- T/C (endpoint: median survival time, dose: 100.0 mg/kg/injection, schedule: Q01DX009 (ip), vehicle: Klucel (hydroxypropylcellulose) (HPC), higher = longer survival): 115 % of control

Compound: CC(NC(=O)C1(N)CCCC1)C(=O)O (stereo not given)
- T/C (endpoint: mean tumor weight, dose: 6.0 mg/kg/injection, schedule: Q01DX011 (ip), vehicle: carboxymethylcellulose (CMC), higher = larger tumour): 59 % of control
- T/C (endpoint: mean tumor weight, dose: 25.0 mg/kg/injection, schedule: Q01DX011 (ip), vehicle: carboxymethylcellulose (CMC), higher = larger tumour): 60 % of control

Compound: CN(C)CCCNc1c2ccccc2nc2cccc([N+](=O)[O-])c12
- T/C (endpoint: median survival time, dose: 2.0 micrograms/kg/injection, schedule: Q01DX009 (ip), vehicle: saline, higher = longer survival): 98 % of control and 118 % of control
- T/C (endpoint: median survival time, dose: 8.0 micrograms/kg/injection, schedule: Q01DX009 (ip), vehicle: saline, higher = longer survival): 89 % of control
- T/C (endpoint: median survival time, dose: 16.0 micrograms/kg/injection, schedule: Q01DX009 (ip), vehicle: saline, higher = longer survival): 109 % of control
- T/C (endpoint: median survival time, dose: 32.0 micrograms/kg/injection, schedule: Q01DX009 (ip), vehicle: saline, higher = longer survival): 95 % of control
- T/C (endpoint: median survival time, dose: 125.0 micrograms/kg/injection, schedule: Q01DX009 (ip), vehicle: saline, higher = longer survival): 93 % of control

Compound: COC1=C(N2CC2)C(=O)C(OC)=C(N2CC2)C1=O
- T/C [1]: 97 % of control
- T/C [2]: 106 % of control
- T/C [3]: 101 % of control
- T/C [4]: 111 % of control
- T/C [5]: 124 % of control

Compound: CN(C)c1ccc(C(N)=O)cn1
- T/C (endpoint: mean tumor weight, dose: 1.5 mg/kg/injection, schedule: Q01DX011 (ip), vehicle: saline, higher = larger tumour): 100 % of control
- T/C (endpoint: mean tumor weight, dose: 3.0 mg/kg/injection, schedule: Q01DX011 (ip), vehicle: saline, higher = larger tumour): 63 % of control
- T/C (endpoint: mean tumor weight, dose: 6.0 mg/kg/injection, schedule: Q01DX011 (ip), vehicle: saline, higher = larger tumour): 36 % of control

Compound: C[C@]12CC[C@H](O)C[C@@]1(O)CC[C@@H]1[C@@H]2CC[C@]2(C)[C@@H](c3ccc(=O)oc3)CC[C@]12O
- T/C (endpoint: median survival time, dose: 1.25 mg/kg/injection, schedule: Q01DX009 (ip), vehicle: Klucel (hydroxypropylcellulose) (HPC), higher = longer survival): 97 % of control
- T/C (endpoint: median survival time, dose: 2.5 mg/kg/injection, schedule: Q01DX009 (ip), vehicle: Klucel (hydroxypropylcellulose) (HPC), higher = longer survival): 98 % of control
- T/C (endpoint: median survival time, dose: 10.0 mg/kg/injection, schedule: Q01DX009 (ip), vehicle: Klucel (hydroxypropylcellulose) (HPC), higher = longer survival): 104 % of control
- T/C (endpoint: median survival time, dose: 20.0 mg/kg/injection, schedule: Q01DX009 (ip), vehicle: Klucel (hydroxypropylcellulose) (HPC), higher = longer survival): 113 % of control

Compound: O=P(NC12CC3CC(CC(C3)C1)C2)(N1CC1)N1CC1
- T/C [1]: 86 % of control
- T/C [2]: 117 % of control
- T/C [3]: 92 % of control
- T/C [4]: 104 % of control
- T/C [5]: 101 % of control

Compound: C=C(C)C12OC3(c4ccccc4)OC1C1C4OC4(CO)C(O)C4(O)C(=O)C(C)=CC4C1(O3)C(C)C2OC(=O)c1ccccc1 (stereo not given)
- T/C (endpoint: median survival time, dose: 0.1 mg/kg/injection, schedule: Q01DX009 (ip), vehicle: saline, higher = longer survival): 100 % of control
- T/C (endpoint: median survival time, dose: 0.2 mg/kg/injection, schedule: Q01DX009 (ip), vehicle: saline, higher = longer survival): 100 % of control
- T/C (endpoint: median survival time, dose: 0.4 mg/kg/injection, schedule: Q01DX009 (ip), vehicle: saline, higher = longer survival): 100 % of control
- T/C (endpoint: median survival time, dose: 0.8 mg/kg/injection, schedule: Q01DX009 (ip), vehicle: saline, higher = longer survival): 94 % of control
